Laboratory results taken from PubChem BioAssay (NCI).
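At the GI50, growth is halved. TGI denotes the concentration required for complete inhibition of growth.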

How the values were obtained:
Test in all cases: growth of human tumour cells (NCI), 384-well format
MDA-MB-468 breast = test system: MDA-MB-468 breast
HOP-92 NSCLC = test system: HOP-92 NSCLC
SR leukemia = test system: SR leukemia
OVCAR-3 ovarian = test system: OVCAR-3 ovarian
786-0 renal = test system: 786-0 renal
PC-3 prostate = test system: PC-3 prostate
SK-MEL-2 melanoma = test system: SK-MEL-2 melanoma
SK-OV-3 ovarian = test system: SK-OV-3 ovarian
ACHN renal = test system: ACHN renal
MCF7 breast = test system: MCF7 breast
NCI-H226 lung = test system: NCI-H226 lung
U251 glioblastoma = test system: U251 glioblastoma
HCT-15 colon = test system: HCT-15 colon
SF-268 CNS = test system: SF-268 CNS
EKVX NSCLC = test system: EKVX NSCLC
MALME-3M melanoma = test system: MALME-3M melanoma
SNB-19 CNS = test system: SNB-19 CNS
OVCAR-8 ovarian = test system: OVCAR-8 ovarian
SF-295 CNS = test system: SF-295 CNS
NCI-H23 lung = test system: NCI-H23 lung
HOP-62 NSCLC = test system: HOP-62 NSCLC
A549 NSCLC = test system: A549 NSCLC
TK-10 renal = test system: TK-10 renal
MDA-MB-435 melanoma = test system: MDA-MB-435 melanoma
COLO 205 colon = test system: COLO 205 colon
RPMI-8226 leukemia = test system: RPMI-8226 leukemia
M14 melanoma = test system: M14 melanoma
MDA-MB-231 breast = test system: MDA-MB-231 breast

**Q.** `Nc1ncn([C@@H]2S[C@H](CO)[C@@H](O)[C@@H]2F)c(=O)n1` was tested. Which TGI (MDA-MB-468 breast) did it give?
**A.** 8070 nM

**Q.** And the GI50 (HOP-92 NSCLC)?
**A.** 314 nM

**Q.** And the TGI (HOP-92 NSCLC)?
**A.** > 100000 nM

**Q.** And the GI50 (SR leukemia)?
**A.** 414 nM

**Q.** And the TGI (SR leukemia)?
**A.** 1400 nM

**Q.** What about the GI50 (OVCAR-3 ovarian) of the same compound?
**A.** 853 nM

**Q.** And the TGI (OVCAR-3 ovarian)?
**A.** > 100000 nM

**Q.** What about the GI50 (786-0 renal) of the same compound?
**A.** 254 nM

**Q.** What about the TGI (786-0 renal) of the same compound?
**A.** 1540 nM

**Q.** What about the GI50 (PC-3 prostate) of the same compound?
**A.** 1430 nM

**Q.** And the TGI (PC-3 prostate)?
**A.** > 100000 nM

**Q.** And the GI50 (SK-MEL-2 melanoma)?
**A.** 392 nM

**Q.** What about the TGI (SK-MEL-2 melanoma) of the same compound?
**A.** 692 nM

**Q.** And the GI50 (SK-OV-3 ovarian)?
**A.** 299 nM

**Q.** What about the TGI (SK-OV-3 ovarian) of the same compound?
**A.** 2200 nM

**Q.** And the GI50 (ACHN renal)?
**A.** 224 nM

**Q.** And the TGI (ACHN renal)?
**A.** 490 nM

**Q.** What about the GI50 (MCF7 breast) of the same compound?
**A.** 663 nM

**Q.** And the TGI (MCF7 breast)?
**A.** > 100000 nM

**Q.** And the GI50 (NCI-H226 lung)?
**A.** 1010 nM

**Q.** What about the TGI (NCI-H226 lung) of the same compound?
**A.** 3800 nM

**Q.** What about the GI50 (U251 glioblastoma) of the same compound?
**A.** 2410 nM

**Q.** What about the TGI (U251 glioblastoma) of the same compound?
**A.** 23600 nM

**Q.** And the GI50 (HCT-15 colon)?
**A.** 1850 nM

**Q.** And the TGI (HCT-15 colon)?
**A.** > 100000 nM

**Q.** And the GI50 (SF-268 CNS)?
**A.** 1050 nM

**Q.** What about the TGI (SF-268 CNS) of the same compound?
**A.** 4990 nM

**Q.** And the GI50 (EKVX NSCLC)?
**A.** 6470 nM

**Q.** And the TGI (EKVX NSCLC)?
**A.** > 100000 nM

**Q.** What about the GI50 (MALME-3M melanoma) of the same compound?
**A.** 366 nM

**Q.** What about the TGI (MALME-3M melanoma) of the same compound?
**A.** 2660 nM

**Q.** And the GI50 (SNB-19 CNS)?
**A.** 461 nM

**Q.** What about the TGI (SNB-19 CNS) of the same compound?
**A.** 7050 nM

**Q.** And the GI50 (OVCAR-8 ovarian)?
**A.** 255 nM

**Q.** And the TGI (OVCAR-8 ovarian)?
**A.** 1830 nM

**Q.** What about the GI50 (SF-295 CNS) of the same compound?
**A.** 2440 nM

**Q.** What about the TGI (SF-295 CNS) of the same compound?
**A.** 17800 nM

**Q.** And the GI50 (NCI-H23 lung)?
**A.** 269 nM

**Q.** And the TGI (NCI-H23 lung)?
**A.** 805 nM

**Q.** What about the GI50 (HOP-62 NSCLC) of the same compound?
**A.** 423 nM

**Q.** And the TGI (HOP-62 NSCLC)?
**A.** 2590 nM

**Q.** What about the GI50 (A549 NSCLC) of the same compound?
**A.** 409 nM

**Q.** And the TGI (A549 NSCLC)?
**A.** > 100000 nM

**Q.** What about the GI50 (TK-10 renal) of the same compound?
**A.** 988 nM

**Q.** And the TGI (TK-10 renal)?
**A.** > 100000 nM

**Q.** What about the GI50 (MDA-MB-435 melanoma) of the same compound?
**A.** 1730 nM

**Q.** And the TGI (MDA-MB-435 melanoma)?
**A.** > 100000 nM

**Q.** And the GI50 (COLO 205 colon)?
**A.** 268 nM

**Q.** What about the TGI (COLO 205 colon) of the same compound?
**A.** 788 nM

**Q.** And the GI50 (RPMI-8226 leukemia)?
**A.** 2160 nM

**Q.** And the TGI (RPMI-8226 leukemia)?
**A.** 4420 nM

**Q.** And the GI50 (M14 melanoma)?
**A.** 290 nM

**Q.** What about the TGI (M14 melanoma) of the same compound?
**A.** 833 nM

**Q.** What about the GI50 (MDA-MB-231 breast) of the same compound?
**A.** 1140 nM

**Q.** What about the TGI (MDA-MB-231 breast) of the same compound?
**A.** 81100 nM
